Assay results published in the kinase profiling compilation of Christmann-Franck et al. (2016).
Each block holds one compound with its values, some of them ahead of it.

Key:
Assay in all cases: radiometric filter-binding kinase assay
PRKACA (human) = PRKACA (human) (UniProt P17612)
ERBB4 (human) = ERBB4 (human) (UniProt Q15303)
MAPK12 (human) = MAPK12 (human) (UniProt P53778)
IKBKE (human) = IKBKE (human) (UniProt Q14164)
MAPKAPK2 (human) = MAPKAPK2 (human) (UniProt P49137)
BRSK1 (human) = BRSK1 (human) (UniProt Q8TDC3)
MAPK13 (human) = MAPK13 (human) (UniProt O15264)
Chain of MAPK13 (human) (O15264 whole entry, looked up): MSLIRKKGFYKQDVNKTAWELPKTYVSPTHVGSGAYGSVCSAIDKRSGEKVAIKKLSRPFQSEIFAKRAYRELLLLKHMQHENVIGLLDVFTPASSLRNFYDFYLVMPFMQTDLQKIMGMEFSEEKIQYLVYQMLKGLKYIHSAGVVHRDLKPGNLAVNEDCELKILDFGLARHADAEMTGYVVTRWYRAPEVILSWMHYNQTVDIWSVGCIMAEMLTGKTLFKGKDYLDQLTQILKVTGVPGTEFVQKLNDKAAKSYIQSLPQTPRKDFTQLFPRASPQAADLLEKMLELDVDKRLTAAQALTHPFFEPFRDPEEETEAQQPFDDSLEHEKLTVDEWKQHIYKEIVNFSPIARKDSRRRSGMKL

DYRK1A (human) = DYRK1A (human) (UniProt Q13627)
SYK (human) = SYK (human) (UniProt P43405)
STK3 (human) = STK3 (human) (UniProt Q13188)
Chain of STK3 (human) (Q13188 whole entry, looked up): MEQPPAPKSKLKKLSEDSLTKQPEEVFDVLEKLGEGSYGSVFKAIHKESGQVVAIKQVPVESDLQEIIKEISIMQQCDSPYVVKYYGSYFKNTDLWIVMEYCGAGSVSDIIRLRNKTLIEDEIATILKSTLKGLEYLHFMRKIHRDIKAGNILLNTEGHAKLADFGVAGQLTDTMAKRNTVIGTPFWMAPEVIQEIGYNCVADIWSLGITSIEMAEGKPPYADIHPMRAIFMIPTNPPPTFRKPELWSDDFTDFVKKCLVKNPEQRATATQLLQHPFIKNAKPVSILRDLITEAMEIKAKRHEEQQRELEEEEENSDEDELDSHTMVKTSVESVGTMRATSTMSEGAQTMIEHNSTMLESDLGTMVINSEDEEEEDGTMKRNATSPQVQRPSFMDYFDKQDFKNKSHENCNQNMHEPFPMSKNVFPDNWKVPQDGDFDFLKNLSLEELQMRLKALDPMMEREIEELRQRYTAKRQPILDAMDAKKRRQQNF

PIM3 (human) = PIM3 (human) (UniProt Q86V86)
PIM2 (human) = PIM2 (human) (UniProt Q9P1W9)
IGF1R (human) = IGF1R (human) (UniProt P08069)
MAPK9 (human) = MAPK9 (human) (UniProt P45984)
MKNK1 (human) = MKNK1 (human) (UniProt Q9BUB5)
PRKCZ (human) = PRKCZ (human) (UniProt Q05513)
HIPK3 (human) = HIPK3 (human) (UniProt Q9H422)
PRKAA1 or PRKAA2 (rat) = conditions: accession and sequence are those of the human protein
BRSK2 (human) = BRSK2 (human) (UniProt Q8IWQ3)
Chain of BRSK2 (human) (Q8IWQ3 whole entry, looked up): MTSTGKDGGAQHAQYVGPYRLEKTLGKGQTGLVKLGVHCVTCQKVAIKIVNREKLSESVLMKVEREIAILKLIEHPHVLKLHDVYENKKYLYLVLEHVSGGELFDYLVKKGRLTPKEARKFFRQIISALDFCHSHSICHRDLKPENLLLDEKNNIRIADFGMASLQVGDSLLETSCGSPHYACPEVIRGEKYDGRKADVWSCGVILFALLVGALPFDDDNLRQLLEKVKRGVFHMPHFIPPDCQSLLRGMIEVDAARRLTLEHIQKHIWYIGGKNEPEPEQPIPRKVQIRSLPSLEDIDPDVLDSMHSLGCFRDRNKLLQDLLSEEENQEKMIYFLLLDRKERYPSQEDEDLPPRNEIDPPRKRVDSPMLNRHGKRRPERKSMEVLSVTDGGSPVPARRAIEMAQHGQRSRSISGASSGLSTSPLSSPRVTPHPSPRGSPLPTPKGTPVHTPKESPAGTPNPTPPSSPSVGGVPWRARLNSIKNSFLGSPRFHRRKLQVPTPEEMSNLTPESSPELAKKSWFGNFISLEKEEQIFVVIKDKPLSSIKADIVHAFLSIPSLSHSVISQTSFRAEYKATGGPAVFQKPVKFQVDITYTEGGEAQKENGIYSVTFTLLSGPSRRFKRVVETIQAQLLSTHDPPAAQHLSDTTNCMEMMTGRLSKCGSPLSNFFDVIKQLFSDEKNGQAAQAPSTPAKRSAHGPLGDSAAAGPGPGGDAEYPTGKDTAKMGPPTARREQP

CAMKK2 (human) = CAMKK2 (human) (UniProt Q96RR4)
PIM1 (human) = PIM1 (human) (UniProt P11309)
EEF2K (human) = EEF2K (human) (UniProt O00418)
GSK3B (human) = GSK3B (human) (UniProt P49841)
FGFR1 (human) = FGFR1 (human) (UniProt P11362)
PAK7 (human) = PAK7 (human) (UniProt Q9P286)
MAP2K2 (human) = MAP2K2 (human) (UniProt P36507)
MAP3K5 (human) = MAP3K5 (human) (UniProt Q99683)
PHKG1 (human) = PHKG1 (human) (UniProt Q16816)
[1] = system: SGK1 (human), O00141 [S422D]
DAPK1 (human) = DAPK1 (human) (UniProt P53355)
MELK (human) = MELK (human) (UniProt Q14680)
Chain of MELK (human) (Q14680 whole entry, looked up): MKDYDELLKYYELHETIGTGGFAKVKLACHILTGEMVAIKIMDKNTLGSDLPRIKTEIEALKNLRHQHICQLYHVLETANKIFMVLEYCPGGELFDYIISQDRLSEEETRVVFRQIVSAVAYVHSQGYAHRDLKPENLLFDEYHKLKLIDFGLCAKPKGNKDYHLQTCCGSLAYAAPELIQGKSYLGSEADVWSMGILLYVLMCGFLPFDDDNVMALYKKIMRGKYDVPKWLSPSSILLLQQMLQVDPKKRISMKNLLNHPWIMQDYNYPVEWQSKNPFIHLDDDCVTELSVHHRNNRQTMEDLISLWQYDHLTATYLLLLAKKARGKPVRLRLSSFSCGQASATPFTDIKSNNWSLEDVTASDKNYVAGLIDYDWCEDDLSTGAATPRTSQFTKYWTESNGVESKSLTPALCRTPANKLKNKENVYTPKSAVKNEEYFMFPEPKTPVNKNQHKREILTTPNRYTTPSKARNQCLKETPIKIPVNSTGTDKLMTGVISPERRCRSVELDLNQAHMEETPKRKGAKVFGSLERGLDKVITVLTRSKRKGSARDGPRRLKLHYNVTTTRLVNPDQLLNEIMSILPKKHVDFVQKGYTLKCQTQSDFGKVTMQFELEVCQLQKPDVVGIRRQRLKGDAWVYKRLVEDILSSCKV

MAPKAPK5 (human) = MAPKAPK5 (human) (UniProt Q8IW41)
MARK1 (human) = MARK1 (human) (UniProt Q9P0L2)
Chain of MARK1 (human) (Q9P0L2 whole entry, looked up): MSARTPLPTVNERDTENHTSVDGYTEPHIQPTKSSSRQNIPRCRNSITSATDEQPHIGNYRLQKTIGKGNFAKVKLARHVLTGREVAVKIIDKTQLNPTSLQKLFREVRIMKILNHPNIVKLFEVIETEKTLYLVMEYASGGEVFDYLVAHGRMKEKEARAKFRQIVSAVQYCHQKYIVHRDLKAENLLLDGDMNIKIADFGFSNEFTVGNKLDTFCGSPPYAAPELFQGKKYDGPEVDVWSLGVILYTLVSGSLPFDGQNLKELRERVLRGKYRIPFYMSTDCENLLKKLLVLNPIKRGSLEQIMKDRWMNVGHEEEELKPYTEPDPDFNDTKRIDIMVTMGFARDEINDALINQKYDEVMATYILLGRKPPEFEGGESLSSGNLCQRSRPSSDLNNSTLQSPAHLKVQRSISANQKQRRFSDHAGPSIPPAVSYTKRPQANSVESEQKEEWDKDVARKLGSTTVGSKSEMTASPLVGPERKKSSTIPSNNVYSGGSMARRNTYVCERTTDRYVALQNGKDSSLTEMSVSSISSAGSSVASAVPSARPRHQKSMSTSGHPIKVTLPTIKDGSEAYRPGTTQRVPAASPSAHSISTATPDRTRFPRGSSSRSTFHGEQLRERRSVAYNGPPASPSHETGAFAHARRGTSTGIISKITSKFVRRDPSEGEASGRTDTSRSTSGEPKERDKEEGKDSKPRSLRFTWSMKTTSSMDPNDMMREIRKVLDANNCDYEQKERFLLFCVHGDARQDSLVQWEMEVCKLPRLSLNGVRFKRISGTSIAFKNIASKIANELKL

EPHB4 (human) = EPHB4 (human) (UniProt P54760)
MAP2K6 (human) = MAP2K6 (human) (UniProt P52564)
Chain of MAP2K6 (human) (P52564 whole entry, looked up): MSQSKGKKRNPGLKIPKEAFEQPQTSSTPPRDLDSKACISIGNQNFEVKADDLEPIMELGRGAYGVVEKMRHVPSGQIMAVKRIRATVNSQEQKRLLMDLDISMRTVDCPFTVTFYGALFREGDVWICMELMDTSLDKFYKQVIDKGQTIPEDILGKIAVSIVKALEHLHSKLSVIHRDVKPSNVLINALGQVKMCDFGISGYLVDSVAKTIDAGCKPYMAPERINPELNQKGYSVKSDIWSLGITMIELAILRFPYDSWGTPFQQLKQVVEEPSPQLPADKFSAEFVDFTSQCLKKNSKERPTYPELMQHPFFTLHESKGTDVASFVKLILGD

MAPK3 (human) = MAPK3 (human) (UniProt P27361)

Chain of MAPK12 (human) (P53778 whole entry, looked up): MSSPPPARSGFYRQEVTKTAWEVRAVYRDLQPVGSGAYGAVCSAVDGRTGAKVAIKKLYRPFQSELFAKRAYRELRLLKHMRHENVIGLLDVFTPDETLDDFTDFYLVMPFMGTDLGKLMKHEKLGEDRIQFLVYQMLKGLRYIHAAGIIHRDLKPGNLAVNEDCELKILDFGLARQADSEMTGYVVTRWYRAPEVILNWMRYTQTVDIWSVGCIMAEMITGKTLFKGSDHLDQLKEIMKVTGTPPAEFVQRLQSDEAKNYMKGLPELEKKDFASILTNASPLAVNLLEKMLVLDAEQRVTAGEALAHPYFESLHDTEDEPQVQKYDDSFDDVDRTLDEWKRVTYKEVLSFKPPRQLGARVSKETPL
Chain of ERBB4 (human) (Q15303 whole entry, looked up): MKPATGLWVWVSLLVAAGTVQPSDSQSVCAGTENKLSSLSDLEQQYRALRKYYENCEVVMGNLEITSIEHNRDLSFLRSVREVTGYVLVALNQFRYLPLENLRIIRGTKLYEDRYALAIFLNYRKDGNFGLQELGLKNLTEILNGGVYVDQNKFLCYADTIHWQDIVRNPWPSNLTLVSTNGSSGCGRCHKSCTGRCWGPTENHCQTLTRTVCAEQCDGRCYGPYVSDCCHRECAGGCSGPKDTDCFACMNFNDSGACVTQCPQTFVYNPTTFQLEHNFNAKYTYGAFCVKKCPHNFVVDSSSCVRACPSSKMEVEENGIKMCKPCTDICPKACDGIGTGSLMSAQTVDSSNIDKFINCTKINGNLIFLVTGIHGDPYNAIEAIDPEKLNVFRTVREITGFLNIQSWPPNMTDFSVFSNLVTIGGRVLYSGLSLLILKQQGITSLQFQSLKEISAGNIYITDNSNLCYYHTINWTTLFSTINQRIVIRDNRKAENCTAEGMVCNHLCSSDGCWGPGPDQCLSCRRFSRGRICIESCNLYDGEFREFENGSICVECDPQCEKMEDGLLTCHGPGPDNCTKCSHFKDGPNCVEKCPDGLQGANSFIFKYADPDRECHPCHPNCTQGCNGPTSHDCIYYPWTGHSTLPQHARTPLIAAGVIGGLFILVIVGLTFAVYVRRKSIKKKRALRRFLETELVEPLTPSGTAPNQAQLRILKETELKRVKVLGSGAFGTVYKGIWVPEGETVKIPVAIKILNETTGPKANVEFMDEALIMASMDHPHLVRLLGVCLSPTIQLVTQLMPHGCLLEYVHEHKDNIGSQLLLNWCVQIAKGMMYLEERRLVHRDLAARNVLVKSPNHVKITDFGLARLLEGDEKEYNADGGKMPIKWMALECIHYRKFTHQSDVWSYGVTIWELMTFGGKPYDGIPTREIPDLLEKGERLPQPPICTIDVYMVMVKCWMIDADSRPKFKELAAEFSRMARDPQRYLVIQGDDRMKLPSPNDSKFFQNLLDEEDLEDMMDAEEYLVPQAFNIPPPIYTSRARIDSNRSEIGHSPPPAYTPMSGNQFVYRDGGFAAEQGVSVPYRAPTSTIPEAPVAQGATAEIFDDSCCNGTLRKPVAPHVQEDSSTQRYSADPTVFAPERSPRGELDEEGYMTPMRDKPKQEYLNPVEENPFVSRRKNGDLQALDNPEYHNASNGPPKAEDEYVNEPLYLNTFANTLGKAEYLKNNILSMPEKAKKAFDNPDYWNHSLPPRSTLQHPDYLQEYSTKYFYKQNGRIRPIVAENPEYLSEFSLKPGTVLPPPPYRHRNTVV

residual activity (PRKACA (human); compound 0.1 µM): 98%
residual activity (PRKACA (human); compound 1.0 µM): 88%
residual activity (PRKACA (human); compound 10.0 µM): 54%
residual activity (ERBB4 (human); compound 0.1 µM): 69%
residual activity (ERBB4 (human); compound 1.0 µM): 64%
residual activity (ERBB4 (human); compound 10.0 µM): 51%
residual activity (MAPK12 (human); compound 0.1 µM): 77%
residual activity (MAPK12 (human); compound 1.0 µM): 80%
residual activity (MAPK12 (human); compound 10.0 µM): 45%
residual activity (IKBKE (human); compound 0.1 µM): 91%
residual activity (IKBKE (human); compound 1.0 µM): 80%
residual activity (IKBKE (human); compound 10.0 µM): 76%
residual activity (MAPKAPK2 (human); compound 0.1 µM): 98%
residual activity (MAPKAPK2 (human); compound 1.0 µM): 86%
residual activity (MAPKAPK2 (human); compound 10.0 µM): 80%
residual activity (BRSK1 (human); compound 0.1 µM): 82%
residual activity (BRSK1 (human); compound 1.0 µM): 81%
residual activity (BRSK1 (human); compound 10.0 µM): 41%
residual activity (MAPK13 (human); compound 0.1 µM): 97%
residual activity (MAPK13 (human); compound 1.0 µM): 24%
residual activity (MAPK13 (human); compound 10.0 µM): 5%
residual activity (DYRK1A (human); compound 0.1 µM): 103%
residual activity (DYRK1A (human); compound 1.0 µM): 101%
residual activity (DYRK1A (human); compound 10.0 µM): 61%
residual activity (SYK (human); compound 0.1 µM): 82%
residual activity (SYK (human); compound 1.0 µM): 64%
residual activity (SYK (human); compound 10.0 µM): 28%
residual activity (STK3 (human); compound 0.1 µM): 16%
residual activity (STK3 (human); compound 1.0 µM): 19%
residual activity (STK3 (human); compound 10.0 µM): 3%
residual activity (PIM3 (human); compound 0.1 µM): 53%
residual activity (PIM3 (human); compound 1.0 µM): 72%
residual activity (PIM3 (human); compound 10.0 µM): 21%
residual activity (PIM2 (human); compound 0.1 µM): 94%
residual activity (PIM2 (human); compound 1.0 µM): 92%
residual activity (PIM2 (human); compound 10.0 µM): 77%
residual activity (IGF1R (human); compound 0.1 µM): 2%
residual activity (IGF1R (human); compound 1.0 µM): 2%
residual activity (IGF1R (human); compound 10.0 µM): 2%
residual activity (MAPK9 (human); compound 0.1 µM): 98%
residual activity (MAPK9 (human); compound 1.0 µM): 94%
residual activity (MAPK9 (human); compound 10.0 µM): 54%
residual activity (MKNK1 (human); compound 0.1 µM): 97%
residual activity (MKNK1 (human); compound 1.0 µM): 103%
residual activity (MKNK1 (human); compound 10.0 µM): 77%
residual activity (PRKCZ (human); compound 0.1 µM): 104%
residual activity (PRKCZ (human); compound 1.0 µM): 98%
residual activity (PRKCZ (human); compound 10.0 µM): 58%
residual activity (HIPK3 (human); compound 0.1 µM): 30%
residual activity (HIPK3 (human); compound 1.0 µM): 31%
residual activity (HIPK3 (human); compound 10.0 µM): 17%
residual activity (PRKAA1 or PRKAA2 (rat); compound 0.1 µM): 63%
residual activity (PRKAA1 or PRKAA2 (rat); compound 1.0 µM): 47%
residual activity (PRKAA1 or PRKAA2 (rat); compound 10.0 µM): 3%
residual activity (BRSK2 (human); compound 0.1 µM): 88%
residual activity (BRSK2 (human); compound 1.0 µM): 80%
residual activity (BRSK2 (human); compound 10.0 µM): 40%
residual activity (CAMKK2 (human); compound 0.1 µM): 22%
residual activity (CAMKK2 (human); compound 1.0 µM): 19%
residual activity (CAMKK2 (human); compound 10.0 µM): 19%
residual activity (PIM1 (human); compound 0.1 µM): 54%
residual activity (PIM1 (human); compound 1.0 µM): 49%
residual activity (PIM1 (human); compound 10.0 µM): 11%
residual activity (EEF2K (human); compound 0.1 µM): 113%
residual activity (EEF2K (human); compound 1.0 µM): 96%
residual activity (EEF2K (human); compound 10.0 µM): 92%
residual activity (GSK3B (human); compound 0.1 µM): 46%
residual activity (GSK3B (human); compound 1.0 µM): 41%
residual activity (GSK3B (human); compound 10.0 µM): 37%
residual activity (FGFR1 (human); compound 0.1 µM): 47%
residual activity (FGFR1 (human); compound 1.0 µM): 43%
residual activity (FGFR1 (human); compound 10.0 µM): 11%
residual activity (PAK7 (human); compound 0.1 µM): 62%
residual activity (PAK7 (human); compound 1.0 µM): 58%
residual activity (PAK7 (human); compound 10.0 µM): 22%
residual activity (MAP2K2 (human); compound 0.1 µM): 86%
residual activity (MAP2K2 (human); compound 1.0 µM): 77%
residual activity (MAP3K5 (human); compound 0.1 µM): 106%
residual activity (MAP3K5 (human); compound 1.0 µM): 101%
residual activity (PHKG1 (human); compound 0.1 µM): 43%
residual activity (PHKG1 (human); compound 1.0 µM): 15%
residual activity (PHKG1 (human); compound 10.0 µM): 2%
residual activity ([1]; compound 0.1 µM): 89%
residual activity ([1]; compound 1.0 µM): 90%
residual activity ([1]; compound 10.0 µM): 41%
residual activity (DAPK1 (human); compound 0.1 µM): 99%
residual activity (DAPK1 (human); compound 1.0 µM): 96%
residual activity (DAPK1 (human); compound 10.0 µM): 63%
residual activity (MELK (human); compound 0.1 µM): 42%
residual activity (MELK (human); compound 1.0 µM): 15%
residual activity (MELK (human); compound 10.0 µM): 5%
residual activity (MAPKAPK5 (human); compound 0.1 µM): 96%
residual activity (MAPKAPK5 (human); compound 1.0 µM): 94%
residual activity (MAPKAPK5 (human); compound 10.0 µM): 96%
residual activity (MARK1 (human); compound 0.1 µM): 70%
residual activity (MARK1 (human); compound 1.0 µM): 78%
residual activity (MARK1 (human); compound 10.0 µM): 58%
residual activity (EPHB4 (human); compound 0.1 µM): 15%
residual activity (EPHB4 (human); compound 1.0 µM): 13%
residual activity (EPHB4 (human); compound 10.0 µM): 4%
residual activity (MAP2K6 (human); compound 0.1 µM): 94%
residual activity (MAP2K6 (human); compound 1.0 µM): 95%
residual activity (MAPK3 (human); compound 0.1 µM): 103%
residual activity (MAPK3 (human); compound 1.0 µM): 78%
residual activity (MAPK3 (human); compound 10.0 µM): 99%
SMILES: Cc1ccc(Sc2cnc(Nc3cccc(Br)n3)s2)cc1C(=O)N1CCN(C(=O)CN)CC1

residual activity (PRKACA (human); compound 1.0 µM): 100%
residual activity (PRKACA (human); compound 10.0 µM): 93%
residual activity (ERBB4 (human); compound 1.0 µM): 106%
residual activity (ERBB4 (human); compound 10.0 µM): 104%
residual activity (MAPK12 (human); compound 1.0 µM): 94%
residual activity (MAPK12 (human); compound 10.0 µM): 70%
residual activity (IKBKE (human); compound 10.0 µM): 101%
residual activity (MAPKAPK2 (human); compound 1.0 µM): 91%
residual activity (MAPKAPK2 (human); compound 10.0 µM): 95%
residual activity (BRSK1 (human); compound 1.0 µM): 83%
residual activity (BRSK1 (human); compound 10.0 µM): 89%
residual activity (MAPK13 (human); compound 1.0 µM): 96%
residual activity (MAPK13 (human); compound 10.0 µM): 70%
residual activity (DYRK1A (human); compound 10.0 µM): 82%
residual activity (SYK (human); compound 10.0 µM): 85%
residual activity (STK3 (human); compound 1.0 µM): 106%
residual activity (STK3 (human); compound 10.0 µM): 81%
residual activity (PIM3 (human); compound 1.0 µM): 99%
residual activity (PIM3 (human); compound 10.0 µM): 64%
residual activity (PIM2 (human); compound 1.0 µM): 93%
residual activity (PIM2 (human); compound 10.0 µM): 98%
residual activity (IGF1R (human); compound 10.0 µM): 105%
residual activity (MAPK9 (human); compound 1.0 µM): 102%
residual activity (MAPK9 (human); compound 10.0 µM): 96%
residual activity (MKNK1 (human); compound 1.0 µM): 86%
residual activity (MKNK1 (human); compound 10.0 µM): 83%
residual activity (PRKCZ (human); compound 1.0 µM): 94%
residual activity (PRKCZ (human); compound 10.0 µM): 61%
residual activity (HIPK3 (human); compound 1.0 µM): 94%
residual activity (HIPK3 (human); compound 10.0 µM): 64%
residual activity (PRKAA1 or PRKAA2 (rat); compound 1.0 µM): 99%
residual activity (PRKAA1 or PRKAA2 (rat); compound 10.0 µM): 105%
residual activity (BRSK2 (human); compound 1.0 µM): 76%
residual activity (BRSK2 (human); compound 10.0 µM): 64%
residual activity (CAMKK2 (human); compound 10.0 µM): 115%
residual activity (PIM1 (human); compound 1.0 µM): 92%
residual activity (PIM1 (human); compound 10.0 µM): 94%
residual activity (EEF2K (human); compound 10.0 µM): 75%
residual activity (GSK3B (human); compound 1.0 µM): 110%
residual activity (GSK3B (human); compound 10.0 µM): 119%
residual activity (FGFR1 (human); compound 1.0 µM): 111%
residual activity (PAK7 (human); compound 1.0 µM): 87%
residual activity (PAK7 (human); compound 10.0 µM): 107%
residual activity (MAP2K2 (human); compound 1.0 µM): 123%
residual activity (MAP2K2 (human); compound 10.0 µM): 113%
residual activity (MAP3K5 (human); compound 1.0 µM): 86%
residual activity (MAP3K5 (human); compound 10.0 µM): 83%
residual activity (PHKG1 (human); compound 1.0 µM): 79%
residual activity (PHKG1 (human); compound 10.0 µM): 72%
residual activity ([1]; compound 1.0 µM): 71%
residual activity ([1]; compound 10.0 µM): 30%
residual activity (DAPK1 (human); compound 1.0 µM): 95%
residual activity (DAPK1 (human); compound 10.0 µM): 43%
residual activity (MELK (human); compound 1.0 µM): 92%
residual activity (MELK (human); compound 10.0 µM): 75%
residual activity (MAPKAPK5 (human); compound 1.0 µM): 89%
residual activity (MAPKAPK5 (human); compound 10.0 µM): 76%
residual activity (MARK1 (human); compound 1.0 µM): 87%
residual activity (MARK1 (human); compound 10.0 µM): 79%
residual activity (EPHB4 (human); compound 1.0 µM): 116%
residual activity (MAP2K6 (human); compound 1.0 µM): 82%
residual activity (MAP2K6 (human); compound 10.0 µM): 74%
residual activity (MAPK3 (human); compound 1.0 µM): 80%
residual activity (MAPK3 (human); compound 10.0 µM): 63%
SMILES: NCC(=O)Nc1ccc(-n2nc(C(F)(F)F)cc2-c2ccc3c(ccc4ccccc43)c2)cc1
